# Source: US20090286876A1, “NEUROPROTECTIVE BENZOATE AND BENZAMIDE COMPOUNDS” (Samaritan Pharmaceuticals, Inc., priority 2003, published 2009)
# What was measured:
# PC12 cells [1] = assay: Reversal of Aβ1-42-induced ATP depletion (ATPLite-M assay); settings: for ATP decrease induced by Aβ1-42, Aβ1-42 control = 100% reduction: 24 h pre-incubation, 24 h; for effect on Aβ1-42-induced ATP decrease, in words: compound 1-100 μM, Aβ1-42 0.1-10 μM
# PC12 cells [2] = assay: Aβ1-42-induced free radical production (2,7-DCF fluorescent probe); settings: compound 1-100 μM 24 h pre-incubation; Aβ1-42 0.1-10 μM 24 h
# PC12 cells [3] = assay: Neuroprotection against Aβ1-42 cytotoxicity, MTT assay (NADPH diaphorase activity); assay type: cell-based, rat; settings: for protective effect against Aβ1-42 neurotoxicity (MTT), in words: compound 1-100 μM, Aβ1-42 0.1-10 μM
# sigma-1 receptor = target: T1, sigma-1 receptor (Homo sapiens, UniProt Q99720); assay: Displacement of [3H](+)pentazocine from sigma-1 receptor expressed in Jurkat cells; assay type: binding
# T1 construct: sigma-1 receptor expressed in Jurkat cells; endogenous in cells; host or cells: Jurkat cells
# T1 sequence (Q99720 whole entry): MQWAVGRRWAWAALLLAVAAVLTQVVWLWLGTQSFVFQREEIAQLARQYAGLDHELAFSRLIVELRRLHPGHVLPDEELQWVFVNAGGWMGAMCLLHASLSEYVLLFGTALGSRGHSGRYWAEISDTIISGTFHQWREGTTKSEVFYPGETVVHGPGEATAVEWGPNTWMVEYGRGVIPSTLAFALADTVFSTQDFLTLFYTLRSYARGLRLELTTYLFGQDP
# σ2-receptor = σ2-receptor (Homo sapiens, UniProt Q5BJF2); assay: σ2-receptor binding
# Chain of σ2-receptor (Q5BJF2 whole entry, species assumed): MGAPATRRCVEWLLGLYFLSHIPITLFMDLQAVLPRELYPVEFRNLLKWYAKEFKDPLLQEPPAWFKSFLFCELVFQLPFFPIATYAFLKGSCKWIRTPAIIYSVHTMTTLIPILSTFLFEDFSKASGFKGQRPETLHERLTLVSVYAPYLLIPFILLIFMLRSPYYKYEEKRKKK
# PC12 cells [4] = assay: Glutamate-induced excitotoxicity, MTT assay; assay type: cell-based, rat; settings: glutamate 100 μM 24 h; for neuroprotective effect against glutamate-induced cell death (MTT), in words: compound 0.3-30 μM 24 h pre-incubation
# HMG-CoA reductase mRNA = HMG-CoA reductase mRNA synthesis, real-time quantitative PCR; assay type: cell-based, rat
# [5] = cited from earlier work
Structure (SMILES),"ATP decrease induced by Aβ1-42, Aβ1-42 control = 100% reduction (PC12 cells [1]; compound 1 μM, Aβ1-42 0.1 μM) [%]","ATP decrease induced by Aβ1-42, Aβ1-42 control = 100% reduction (PC12 cells [1]; compound 1 μM, Aβ1-42 1 μM) [%]","ATP decrease induced by Aβ1-42, Aβ1-42 control = 100% reduction (PC12 cells [1]; compound 1 μM, Aβ1-42 10 μM) [%]","ATP decrease induced by Aβ1-42, Aβ1-42 control = 100% reduction (PC12 cells [1]; compound 10 μM, Aβ1-42 0.1 μM) [%]","ATP decrease induced by Aβ1-42, Aβ1-42 control = 100% reduction (PC12 cells [1]; compound 10 μM, Aβ1-42 1 μM) [%]","ATP decrease induced by Aβ1-42, Aβ1-42 control = 100% reduction (PC12 cells [1]; compound 10 μM, Aβ1-42 10 μM) [%]","ATP decrease induced by Aβ1-42, Aβ1-42 control = 100% reduction (PC12 cells [1]; compound 100 μM, Aβ1-42 0.1 μM) [%]","ATP decrease induced by Aβ1-42, Aβ1-42 control = 100% reduction (PC12 cells [1]; compound 100 μM, Aβ1-42 1 μM) [%]","ATP decrease induced by Aβ1-42, Aβ1-42 control = 100% reduction (PC12 cells [1]; compound 100 μM, Aβ1-42 10 μM) [%]","effect on Aβ1-42-induced ATP decrease, in words (PC12 cells [1])","effect on Aβ1-42-induced free radical production, in words (PC12 cells [2])","protective effect against Aβ1-42 neurotoxicity (MTT), in words (PC12 cells [3])","neuroprotective effect against glutamate-induced cell death (MTT), in words (PC12 cells [4])",also measured
"CCN(CC)CC(=O)Nc1c(C)cccc1C [Lidocaine, (2-diethylamino)-N-(2,6-dimethylphenyl)-acetamide]",38.7 ± 26.1,62.0 ± 8.5,53.5 ± 20.3,47.2 ± 28.7,69.0 ± 13.0,65.0 ± 7.6,65.3 ± 45.2,81.3 ± 8.7,70.1 ± 4.8,restored ATP concentrations in PC12 cells exposed to 0.1 and 1 μM Aβ1-42,exhibited a trend to reduce the Aβ1-42-induced free radical production,–,–,–
CCN(CC)CCNC(=O)c1ccc(N)cc1 [Procainamide],46.8 ± 25.9,51.4 ± 17.3,56.5 ± 11.6,60.4 ± 5.8,61.7 ± 10.8,56.2 ± 6.1,40.9 ± 14.5,40.8 ± 6.5,52.2 ± 10.2,significantly prevented the Aβ1-42-induced decrease of intracellular ATP levels,exhibited a trend to reduce the Aβ1-42-induced free radical production,–,–,–
"CCN(CC)CCOC(=O)c1ccc(N)cc1 [Procaine, 4-aminobenzoic acid 2-(diethylamino)ethyl ester]",64.0 ± 24.4,67.8 ± 13.8,86.8 ± 5.5,56.0 ± 16.4,97.0 ± 45.5,89.8 ± 5.1,42.8 ± 16.9,69.6 ± 12.1,83.6 ± 20.6,protected against the 0.1 μM Aβ1-42-induced depletion of ATP concentrations in a dose-dependent manner,exhibited a trend to reduce the Aβ1-42-induced free radical production,important protective effect against 0.1 and 1 μM Aβ1-42 induced toxicity,prevented the glutamate-induced neurotoxicity in a biphasic manner,"reduction of the NADPH diaphorase inhibition induced by Aβ1-42 (PC12 cells [3]; 1 and 10 μM procaine): at least 30%; Hill coefficient (nH) (sigma-1 receptor): 1.0; IC50 (sigma-1 receptor): 4.3 µM; IC50 (σ2-receptor): > 10 µM; basal level of HMG-CoA reductase mRNA, in words (HMG-CoA reductase mRNA; control PC12 cells, no Aβ1-42): did not affect; level of HMG-CoA reductase mRNA induced by Aβ1-42, in words (HMG-CoA reductase mRNA; procaine 1 or 10 μM 18 h pre-incubation, Aβ1-42 1 μM 24 h): decreased in a dose-dependent manner; pKa [5]: 8.9"
"CCN1CCN(OC(=O)c2ccc(OC)c(OC)c2OC)CC1 [SP008, (4-ethylpiperazinyl-1-yl)-2′,3′,4′-trimethoxybenzoate]",–,–,–,–,–,–,–,–,–,–,–,–,more important than that of procaine effect at the same concentration,concentration of maximum (peak) protective effect against glutamate (PC12 cells [4]; compound tested at 0.3-30 μM): 3 µM
"CC(=O)OC1CC(O)C2(C)C(OC(C)=O)C3C(CC(C)C12)OC(=O)C3CN1CCN(C(=O)c2ccccc2)CC1 (centres unmarked) [SP015, Acetic acid 7-acetoxy-3-(4-benzoyl-piperazin-1-yl-methyl)-5-hydroxy-4a, 8-dimethyl-2-oxo-dodecahydro-azuleno[6,5-b]furan-4-yl ester]",46.3 ± 10.1,55.6 ± 5.3,32.8 ± 9.4,99.2 ± 13.1,124 ± 24.7,104 ± 22.5,91.5 ± 1.5,85.6 ± 12.3,73.8 ± 6.8,able to reverse the effect of Aβ1-42 on ATP,amplified the Aβ1-42-induced free radicals production,protected only at 1 and 10 μM concentrations against the highest concentration of Aβ1-42,–,–
